Experimental data as given in PubChem BioAssay (NCI).
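Cultured in 96-well plates, cells were exposed to test compound for 48 hours across five concentrations. TGI: concentration producing complete growth inhibition.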

Experiments:
Test in all cases: inhibition of tumour cell growth, NCI panel, 48 h
[1] = system: SK-OV-3 ovarian
[2] = system: COLO 205 colon
[3] = system: HOP-18 NSCLC
[4] = system: SNB-75 CNS
[5] = system: K-562 leukemia
[6] = system: OVCAR-8 ovarian
[7] = system: U251 CNS
[8] = system: SNB-78 CNS
[9] = system: SN12C renal
[10] = system: HT29 colon
[11] = system: HOP-62 NSCLC
[12] = system: NCI-H522 lung
[13] = system: NCI-H23 lung
[14] = system: SK-MEL-5 melanoma
[15] = system: SNB-19 CNS
[16] = system: HL-60(TB) leukemia
[17] = system: RXF 393 renal
[18] = system: KM12 colon
[19] = system: SK-MEL-2 melanoma
[20] = system: HCC-2998 colon
[21] = system: NCI-H460 lung
[22] = system: IGROV1 ovarian
[23] = system: KM20L2 colon
[24] = system: CCRF-CEM leukemia
[25] = system: UACC-62 melanoma
[26] = system: MOLT-4 leukemia
[27] = system: CAKI-1 renal
[28] = system: DMS 273 small cell lung
[29] = system: LXFL 529 NSCLC
[30] = system: SF-295 CNS
[31] = system: SR leukemia
[32] = system: RXF-631 renal
[33] = system: A549 NSCLC
[34] = system: OVCAR-4 ovarian
[35] = system: SF-268 CNS
[36] = system: SW-620 colon
[37] = system: HCT-116 colon
[38] = system: UO-31 renal
[39] = system: LOX IMVI melanoma
[40] = system: SF-539 CNS
[41] = system: M19-MEL melanoma
[42] = system: OVCAR-5 ovarian
[43] = system: HOP-92 NSCLC
[44] = system: A498 renal
[45] = system: SK-MEL-28 melanoma
[46] = system: RPMI-8226 leukemia
[47] = system: OVCAR-3 ovarian
[48] = system: XF 498 CNS
[49] = system: UACC-257 melanoma
[50] = system: EKVX NSCLC
[51] = system: DMS 114 small cell lung
[52] = system: TK-10 renal
[53] = system: 786-0 renal
[54] = system: M14 melanoma
[55] = system: ACHN renal
[56] = system: HCT-15 colon
[57] = system: NCI-H226 lung
[58] = system: MALME-3M melanoma
[59] = system: DLD-1 colon

`N#C/C(=C\c1c(Cl)cccc1Cl)c1ccccc1` was tested, and the TGI [1] was greater than 65.9 µM, the TGI [2] was 7.16 µM and the TGI [3] was greater than 100 µM. It also gave a TGI [4] of 7.76 µM, a TGI [5] greater than 100 µM and a TGI [6] greater than 100 µM. The TGI [7] was greater than 90.1 µM, the TGI [8] was greater than 66.8 µM and the TGI [9] was greater than 69.5 µM. It also gave a TGI [10] greater than 59.5 µM, a TGI [11] greater than 31.4 µM and a TGI [12] of 40.9 µM. The TGI [13] was greater than 87.9 µM, the TGI [14] was greater than 46.8 µM and the TGI [15] was 78.5 µM. For the same molecule, the TGI [16] was 15.9 µM, the TGI [17] was 25.7 µM and the TGI [18] was greater than 100 µM. The TGI [19] was 39.3 µM, the TGI [20] was greater than 100 µM and the TGI [21] was greater than 58.5 µM. The TGI [22] was greater than 100 µM, the TGI [23] was 21.8 µM and the TGI [24] was 11.9 µM. For the same molecule, the TGI [25] was greater than 31.3 µM, the TGI [26] was greater than 66.5 µM and the TGI [27] was greater than 100 µM. For the same molecule, the TGI [28] was 11.8 µM, the TGI [29] was greater than 100 µM and the TGI [30] was 65.5 µM. It also gave a TGI [31] of 6.04 µM, a TGI [32] greater than 100 µM and a TGI [33] greater than 100 µM. For the same molecule, the TGI [34] was greater than 96.3 µM, the TGI [35] was greater than 100 µM and the TGI [36] was greater than 100 µM. For the same molecule, the TGI [37] was greater than 100 µM, the TGI [38] was greater than 100 µM and the TGI [39] was greater than 68.5 µM. The TGI [40] was 9.53 µM, the TGI [41] was greater than 100 µM and the TGI [42] was greater than 100 µM. The TGI [43] was 41.1 µM, the TGI [44] was 25.4 µM and the TGI [45] was greater than 100 µM. The TGI [46] was greater than 100 µM, the TGI [47] was 19.9 µM and the TGI [48] was 33.4 µM. For the same molecule, the TGI [49] was greater than 100 µM, the TGI [50] was greater than 100 µM and the TGI [51] was greater than 39.5 µM. For the same molecule, the TGI [52] was greater than 100 µM, the TGI [53] was greater than 56.6 µM and the TGI [54] was greater than 76.3 µM. The TGI [55] was greater than 100 µM, the TGI [56] was greater than 100 µM and the TGI [57] was greater than 48.9 µM. It also gave a TGI [58] of 56 µM and a TGI [59] greater than 100 µM.
